The test system of the assay is P388 leukemia ip, CD2F1 mice, survival T/C. The experiment in a line: NCI In Vivo Anticancer Drug Screen. Data for tumor model P388 Leukemia (intraperitoneal) in CD2F1 (CDF1) mice. The conditions noted are these: endpoint: median survival time, higher = longer survival. In outline: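 Mice carrying the transplanted tumor received test compound or vehicle. Survival was recorded in each group, and the value is the treated-group measurement divided by that of the vehicle-treated control group.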

The mark [1] stands for this setting: dose: 100.0 mg/kg/injection, schedule: Q04DX003 (ip), vehicle: saline with Tween-80.
Where [2] appears, read: dose: 200.0 mg/kg/injection, schedule: Q04DX003 (ip), vehicle: saline with Tween-80.
The mark [3] stands for this setting: dose: 400.0 mg/kg/injection, schedule: Q04DX003 (ip), vehicle: saline with Tween-80.
The mark [4] stands for this setting: dose: 100.0 mg/kg/injection, schedule: Q01DX009 (ip), vehicle: saline.
[5] abbreviates: dose: 200.0 mg/kg/injection, schedule: Q01DX009 (ip), vehicle: saline.
Setting [6] is: dose: 100.0 mg/kg/injection, schedule: Q01DX001 (ip), vehicle: saline with Tween-80.
Where [7] appears, read: dose: 200.0 mg/kg/injection, schedule: Q01DX001 (ip), vehicle: saline with Tween-80.
Where [8] appears, read: dose: 400.0 mg/kg/injection, schedule: Q01DX001 (ip), vehicle: saline with Tween-80.
The mark [9] stands for this setting: dose: 50.0 mg/kg/injection, schedule: Q01DX005 (ip), vehicle: saline.
The mark [10] stands for this setting: dose: 50.0 mg/kg/injection, schedule: Q01DX005 (ip), vehicle: Klucel (hydroxypropylcellulose) (HPC).
The mark [11] stands for this setting: dose: 100.0 mg/kg/injection, schedule: Q01DX005 (ip), vehicle: Klucel (hydroxypropylcellulose) (HPC).
The mark [12] stands for this setting: dose: 200.0 mg/kg/injection, schedule: Q01DX005 (ip), vehicle: Klucel (hydroxypropylcellulose) (HPC).
The mark [13] stands for this setting: dose: 50.0 mg/kg/injection, schedule: Q01DX009 (ip), vehicle: saline.
Where [14] appears, read: dose: 12.5 mg/kg/injection, schedule: Q01DX005 (ip), vehicle: saline.
Where [15] appears, read: dose: 25.0 mg/kg/injection, schedule: Q01DX005 (ip), vehicle: saline.
Setting [16] is: dose: 25.0 mg/kg/injection, schedule: Q01DX009 (ip), vehicle: Klucel (hydroxypropylcellulose) (HPC).
Setting [17] is: dose: 50.0 mg/kg/injection, schedule: Q01DX009 (ip), vehicle: Klucel (hydroxypropylcellulose) (HPC).

Values joined by “and” are separate entries in the source; they are usually repeats but may differ in a detail not shown here. Equal values may be shown once. Inconclusive results and toxic doses are left out.

As for `COc1c2c3c4c5c(c(=O)cc6c5c5c(cc(=O)c(c1O)c35)OCO6)=C(O)[C@@]1(OC)O[C@H](C)C[C@@]41C2`, the T/C (dose: 2.5 mg/kg/injection, schedule: Q01DX009 (ip), vehicle: saline with Tween-80) was 95 % of control; the T/C (dose: 5.0 mg/kg/injection, schedule: Q01DX009 (ip), vehicle: saline with Tween-80) is 95 % of control; the T/C (dose: 10.0 mg/kg/injection, schedule: Q01DX009 (ip), vehicle: saline with Tween-80) is 95 % of control.
Consider `CCOP(=O)(O)OCC.CCOP(=O)(O)OCC.[O]=[V]`, for which the T/C is, setting by setting: (dose: 100.0 mg/kg/injection, schedule: Q01DX001 (ip), vehicle: Klucel (hydroxypropylcellulose) (HPC)) 100 % of control; (dose: 200.0 mg/kg/injection, schedule: Q01DX001 (ip), vehicle: Klucel (hydroxypropylcellulose) (HPC)) 100 % of control.
On to `CCCN(CCC)CCC(=O)OCC`, for which the T/C was 118 % of control under setting [1], 100 % of control under setting [2] and 100 % of control under setting [3].
With `COc1cc(C(=O)NCCS(=O)(=O)O)cc(OC)c1OC`, the T/C under setting [4] is 109 % of control; the T/C under setting [5] is 109 % of control; the T/C (dose: 400.0 mg/kg/injection, schedule: Q01DX009 (ip), vehicle: saline) was 105 % of control.
As to `CC(=O)N(C)OS(=O)(=O)c1ccc(C)cc1`, the T/C is 102 % of control (dose: 50.0 mg/kg/injection, schedule: Q01DX001 (ip), vehicle: saline with Tween-80); 105 % of control under setting [6]; 105 % of control under setting [7]; 95 % of control under setting [8].
As to `BrCCc1ccccc1Br`, the T/C runs as follows: (dose: 50.0 mg/kg/injection, schedule: Q01DX005 (ip), vehicle: distilled water + alcohol) 105 % of control; (dose: 100.0 mg/kg/injection, schedule: Q01DX005 (ip), vehicle: distilled water + alcohol) 97 % of control; (dose: 200.0 mg/kg/injection, schedule: Q01DX005 (ip), vehicle: distilled water + alcohol) 97 % of control.
With `O=c1c2cc(O)ccc2oc2c(CO)ccc(NCCN3CCCC3)c12`, the T/C was 93 % of control under setting [6], 100 % of control under setting [7] and 106 % of control under setting [8].
For `CC(=O)/C(C)=C/O`, the T/C runs as follows: under setting [9], 98 % of control; (dose: 100.0 mg/kg/injection, schedule: Q01DX005 (ip), vehicle: saline) 104 % of control; (dose: 200.0 mg/kg/injection, schedule: Q01DX005 (ip), vehicle: saline) 104 % of control.
Regarding `COc1cc2c3c(c1OC)C=C[C@@H]1CCCN(CC2)[C@H]31`, the T/C reads like this: (dose: 7.5 mg/kg/injection, schedule: Q01DX005 (ip), vehicle: Klucel (hydroxypropylcellulose) (HPC)) 100 % of control; (dose: 15.0 mg/kg/injection, schedule: Q01DX005 (ip), vehicle: Klucel (hydroxypropylcellulose) (HPC)) 98 % of control; (dose: 30.0 mg/kg/injection, schedule: Q01DX005 (ip), vehicle: Klucel (hydroxypropylcellulose) (HPC)) 101 % of control.
`COc1ccc2cc3cnccc3cc2c1OC`: the T/C reads like this: (dose: 12.5 mg/kg/injection, schedule: Q01DX009 (ip), vehicle: water) 99 % of control; (dose: 25.0 mg/kg/injection, schedule: Q01DX009 (ip), vehicle: water) 97 % of control; (dose: 50.0 mg/kg/injection, schedule: Q01DX009 (ip), vehicle: water) 94 % of control; (dose: 100.0 mg/kg/injection, schedule: Q01DX009 (ip), vehicle: water) 102 % of control; (dose: 200.0 mg/kg/injection, schedule: Q01DX009 (ip), vehicle: water) 96 % of control.
`CCCCCCCC/C=C\CCCCCCCC(=O)OCC(COC(=O)CCCCCCC/C=C\CCCCCCCC)OC(=O)N(CCCl)CCCl`: the T/C is, setting by setting: (dose: 30.0 mg/kg/injection, schedule: Q01DX005 (ip), vehicle: saline with Tween-80) 118 % of control; (dose: 60.0 mg/kg/injection, schedule: Q01DX005 (ip), vehicle: saline with Tween-80) 115 % of control; (dose: 120.0 mg/kg/injection, schedule: Q01DX005 (ip), vehicle: saline with Tween-80) 174 % of control; (dose: 240.0 mg/kg/injection, schedule: Q01DX005 (ip), vehicle: saline with Tween-80) 205 % of control and 259 % of control.
Take `O=C(Nc1ncn[nH]1)c1ccccc1O`: the T/C by setting is: under setting [10], 99 % of control; under setting [11], 91 % of control; under setting [12], 86 % of control.
Regarding `O=NN(CCCl)C(=O)Nc1ccc(Br)cc1`, the T/C runs as follows: (dose: 6.25 mg/kg/injection, schedule: Q01DX009 (ip), vehicle: saline) 122 % of control; (dose: 12.5 mg/kg/injection, schedule: Q01DX009 (ip), vehicle: suspension in saline) 150 % of control; (dose: 25.0 mg/kg/injection, schedule: Q01DX009 (ip), vehicle: suspension in saline) 167 % of control; under setting [13], 122 % of control; (dose: 50.0 mg/kg/injection, schedule: Q01DX009 (ip), vehicle: suspension in saline) 167 % of control.
With `CC1(C)OCC(C(O)c2nc3ccccc3nc2C(=O)Nc2ccccc2N)O1` (centres undefined), the T/C was 97 % of control under setting [6], 92 % of control under setting [7] and 86 % of control under setting [8].
For `C(=C\CN(Cc1ccccc1)Cc1ccccc1)/CN(Cc1ccccc1)Cc1ccccc1`, the T/C is 95 % of control (dose: 50.0 mg/kg/injection, schedule: Q04DX003 (ip), vehicle: Klucel (hydroxypropylcellulose) (HPC)); 90 % of control (dose: 100.0 mg/kg/injection, schedule: Q04DX003 (ip), vehicle: Klucel (hydroxypropylcellulose) (HPC)); 90 % of control (dose: 200.0 mg/kg/injection, schedule: Q04DX003 (ip), vehicle: Klucel (hydroxypropylcellulose) (HPC)).
Take `O=C1OC(C(F)(F)F)=NC1Cc1ccccc1` (centres undefined): the T/C is, setting by setting: under setting [1], 107 % of control; under setting [2], 98 % of control; under setting [3], 101 % of control.
Take `Cn1c(=O)c2c(ncn2CCSc2ncnc3nc[nH]c23)n(C)c1=O`: the T/C was 97 % of control under setting [13], 105 % of control under setting [4] and 114 % of control under setting [5].
`C[N+]1(C[Si](C)(C)c2ccccc2)CCCCC1`: the T/C runs as follows: under setting [14], 104 % of control; under setting [15], 100 % of control; under setting [9], 101 % of control and 105 % of control.
On to `CSCCC(NCC(=O)Nc1ccc(S(=O)(=O)c2ccc(NC(=O)CNC(CCSC)C(=O)O)cc2)cc1)C(=O)O` (centres undefined), for which the T/C is, setting by setting: under setting [10], 100 % of control; under setting [11], 101 % of control; under setting [12], 101 % of control.
With `CC1=NC2=CC=CC3=NC(C(Cl)(Cl)Cl)=NC(=N1)N23`, the T/C runs as follows: (dose: 60.0 mg/kg/injection, schedule: Q01DX005 (ip), vehicle: Klucel + Tween-80) 102 % of control; (dose: 120.0 mg/kg/injection, schedule: Q01DX005 (ip), vehicle: Klucel + Tween-80) 102 % of control; (dose: 240.0 mg/kg/injection, schedule: Q01DX005 (ip), vehicle: Klucel + Tween-80) 102 % of control.
As to `c1ccc(-c2nc3cnccc3o2)cc1`, the T/C was 103 % of control (dose: 6.25 mg/kg/injection, schedule: Q01DX009 (ip), vehicle: Klucel (hydroxypropylcellulose) (HPC)); 105 % of control (dose: 12.5 mg/kg/injection, schedule: Q01DX009 (ip), vehicle: Klucel (hydroxypropylcellulose) (HPC)); 114 % of control under setting [16]; 112 % of control under setting [17].
Turning to `[NH-]CC[N-]CCO.[NH-]CC[N-]CCO.[NH-]CC[N-]CCO.[Ni]`, the T/C (dose: 6.25 mg/kg/injection, schedule: Q01DX005 (ip), vehicle: saline) is 93 % of control; the T/C under setting [14] is 98 % of control; the T/C under setting [15] was 107 % of control.
As for `Cc1c(N=Nc2ccccc2C(F)(F)F)c(-c2ccccc2)nn1C(=S)S`, the T/C by setting is: under setting [6], 89 % of control; under setting [7], 90 % of control; under setting [8], 101 % of control.
With `O=C1C(Cl)=C(NCCO)C(=O)c2ccccc21`, the T/C under setting [16] is 101 % of control; the T/C under setting [17] is 106 % of control; the T/C (dose: 100.0 mg/kg/injection, schedule: Q01DX009 (ip), vehicle: Klucel (hydroxypropylcellulose) (HPC)) is 112 % of control; the T/C (dose: 200.0 mg/kg/injection, schedule: Q01DX009 (ip), vehicle: Klucel (hydroxypropylcellulose) (HPC)) was 102 % of control.

The values above are taken from PubChem BioAssay AID330 (DTP/NCI, 2004).
